Test results published in patent US20100298141A1, “SUBSTITUTED PYRIDINE N-OXIDE HERBICIDES” (E. I. DU PONT DE NEMOURS AND COMPANY, priority 2007, published 2010).

Legend:
crabgrass = test: Test A pre-/postemergence greenhouse test; assay type: in vivo, Digitaria sanguinalis; conditions: for Crabgrass, Large plant response rating: 0 to 100 scale; for Plant response rating, Crabgrass, Large: 0 to 100 scale where 0 is no effect and 100 is complete control
Outline: (§1)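 Pots of loam–sand soil sown with the test species are sprayed preemergence on the soil surface; emerged seedlings (1–2 leaves, 2–10 cm) are sprayed postemergence at the same time. The vehicle is a non-phytotoxic solvent mixture with surfactant. Injury is scored visually after ~10 d in greenhouse.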

giant foxtail [1] = test: Test A pre-/postemergence greenhouse test; assay type: in vivo, Setaria faberi; conditions: for Foxtail, Giant plant response rating: 0 to 100 scale; for Plant response rating, Foxtail, Giant: 0 to 100 scale where 0 is no effect and 100 is complete control
Outline: as §1

morningglory [2] = test: Test A pre-/postemergence greenhouse test; assay type: in vivo, Ipomoea spp.; conditions: for Morningglory plant response rating: 0 to 100 scale; for Plant response rating, Morningglory: 0 to 100 scale where 0 is no effect and 100 is complete control
Outline: as §1

wheat = test: Test A pre-/postemergence greenhouse test; assay type: in vivo, Triticum aestivum; conditions: for Wheat plant response rating: 0 to 100 scale; for Plant response rating, Wheat: 0 to 100 scale where 0 is no effect and 100 is complete control
Outline: as §1

downy brome = test: Test C pre-/postemergence test; assay type: in vivo, Bromus tectorum
Outline: (§2)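 Seeds were planted and treated preemergence with test chemical in a non-phytotoxic solvent mixture containing surfactant. Postemergence applications of the same formulation went onto plants 2 to 18 cm tall (1- to 4-leaf stage). A dash marks no test result.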

cocklebur = test: Test C pre-/postemergence test; assay type: in vivo, Xanthium strumarium
Outline: as §2

corn = test: Test C pre-/postemergence test; assay type: in vivo, Zea mays
Outline: as §2

woolly cupgrass = test: Test C pre-/postemergence test; assay type: in vivo, Eriochloa villosa
Outline: as §2

giant foxtail [3] = test: Test C pre-/postemergence test; assay type: in vivo, Setaria faberii
Outline: as §2

Goosegrass = test: Test C pre-/postemergence test; assay type: in vivo, Eleusin indica
Outline: as §2

johnsongrass = test: Test C pre-/postemergence test; assay type: in vivo, Sorghum halepense
Outline: as §2

lambsquarters = test: Test C pre-/postemergence test; assay type: in vivo, Chenopodium album
Outline: as §2

morningglory [4] = test: Test C pre-/postemergence test; assay type: in vivo, Ipomoea coccinea
Outline: as §2

yellow nutsedge = test: Test C pre-/postemergence test; assay type: in vivo, Cyperus esculentus
Outline: as §2

common ragweed = test: Test C pre-/postemergence test; assay type: in vivo, Ambrosia elation
Outline: as §2

soybean = test: Test C pre-/postemergence test; assay type: in vivo, Glycine max
Outline: as §2

umbrella sedge = test: Test C flooded paddy test; assay type: in vivo, Cyperus difformis; conditions: Flood
Outline: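 In-water treatment: compound dosed into 3 cm flood over soil, water level unchanged throughout. Controls run alongside; visual assessment at day 13–15.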

[5] = Postemergence, 125 g ai/ha, 0 is no effect, 100 is complete control
[6] = Postemergence, 500 g ai/ha, 0 is no effect, 100 is complete control
[7] = Preemergence, 125 g ai/ha, 0 no effect, 100 complete control
[8] = 31 g ai/ha, Preemergence, scale 0 to 100
[9] = 62 g ai/ha, preemergence, scale 0 (no effect) to 100 (complete control)
[10] = preemergence, 125 g ai/ha, scale 0 (no effect) to 100 (complete control)
[11] = Preemergence, 500 g ai/ha, 0 no effect, 100 complete control
[12] = 62 g ai/ha, Preemergence, scale 0 to 100
[13] = 125 g ai/ha, preemergence, scale 0 (no effect) to 100 (complete control)
[14] = Preemergence, 31 g ai/ha, scale 0 to 100 (0 no effect, 100 complete control)
[15] = preemergence, 250 g ai/ha, scale 0 (no effect) to 100 (complete control)

SMILES: Cn1nc(C(F)(F)F)c(C(Cl)S(=O)(=O)c2cccc[n+]2[O-])c1Cl (stereo not drawn) [Compound 12]
- Crabgrass, Large plant response rating (crabgrass; [5]): 60
- Crabgrass, Large plant response rating (crabgrass; [6]): 70
- Crabgrass, Large plant response rating (crabgrass; [7]): 70
- Plant response rating, Crabgrass, Large (crabgrass; Preemergence, 500 g ai/ha): 100
- Foxtail, Giant plant response rating (giant foxtail [1]; [5]): 50
- Foxtail, Giant plant response rating (giant foxtail [1]; [6]): 70
- Foxtail, Giant plant response rating (giant foxtail [1]; [7]): 80
- Plant response rating, Foxtail, Giant (giant foxtail [1]; Preemergence, 500 g ai/ha): 100
- Morningglory plant response rating (morningglory [2]; [5]): 20
- Morningglory plant response rating (morningglory [2]; [6]): 30
- Morningglory plant response rating (morningglory [2]; [7]): 0
- Plant response rating, Morningglory (morningglory [2]; Preemergence, 500 g ai/ha): 60
- Wheat plant response rating (wheat; [5]): 0
- Wheat plant response rating (wheat; [6]): 40
- Wheat plant response rating (wheat; [7]): 0
- Plant response rating, Wheat (wheat; Preemergence, 500 g ai/ha): 30
- Bromegrass, Downy plant response rating (downy brome; [8]): 0
- Bromegrass, Downy plant response rating (downy brome; [9]): 0
- Plant response rating (0 to 100), Bromegrass, Downy (downy brome; Preemergence, 250 g ai/ha): 0
- Bromegrass, Downy plant response rating (downy brome; [10]): 0
- Cocklebur plant response rating (cocklebur; [8]): 0
- Cocklebur plant response rating (cocklebur; [9]): 0
- Plant response rating (0 to 100), Cocklebur (cocklebur; Preemergence, 250 g ai/ha): 0
- Cocklebur plant response rating (cocklebur; [10]): 0
- Corn plant response rating (corn; [8]): 0
- Corn plant response rating (corn; [9]): 0
- Plant response rating (0 to 100), Corn (corn; Preemergence, 250 g ai/ha): 45
- Corn plant response rating (corn; [10]): 0
- Cupgrass, Woolly plant response rating (woolly cupgrass; [8]): 80
- Cupgrass, Woolly plant response rating (woolly cupgrass; [9]): 100
- Plant response rating (0 to 100), Cupgrass, Woolly (woolly cupgrass; Preemergence, 250 g ai/ha): 100
- Cupgrass, Woolly plant response rating (woolly cupgrass; [10]): 100
- Foxtail, Giant plant response rating (giant foxtail [3]; [8]): 80
- Foxtail, Giant plant response rating (giant foxtail [3]; [9]): 80
- Plant response rating (0 to 100), Foxtail, Giant (giant foxtail [3]; Preemergence, 250 g ai/ha): 100
- Foxtail, Giant plant response rating (giant foxtail [3]; [10]): 80
- Goosegrass plant response rating (Goosegrass; [8]): 100
- Goosegrass plant response rating (Goosegrass; [9]): 100
- Plant response rating (0 to 100), Goosegrass (Goosegrass; Preemergence, 250 g ai/ha): 100
- Goosegrass plant response rating (Goosegrass; [10]): 100
- Johnsongrass plant response rating (johnsongrass; [8]): 0
- Johnsongrass plant response rating (johnsongrass; [9]): 70
- Plant response rating (0 to 100), Johnsongrass (johnsongrass; Preemergence, 250 g ai/ha): 100
- Johnsongrass plant response rating (johnsongrass; [10]): 100
- Lambsquarters plant response rating (lambsquarters; [8]): 0
- Lambsquarters plant response rating (lambsquarters; [9]): 100
- Plant response rating (0 to 100), Lambsquarters (lambsquarters; Preemergence, 250 g ai/ha): 100
- Lambsquarters plant response rating (lambsquarters; [10]): 100
- Morningglory plant response rating (morningglory [4]; [8]): 0
- Morningglory plant response rating (morningglory [4]; [9]): 0
- Plant response rating (0 to 100), Morningglory (morningglory [4]; Preemergence, 250 g ai/ha): 80
- Morningglory plant response rating (morningglory [4]; [10]): 5
- Nutsedge, Yellow plant response rating (yellow nutsedge; [8]): 45
- Nutsedge, Yellow plant response rating (yellow nutsedge; [9]): 70
- Plant response rating (0 to 100), Nutsedge, Yellow (yellow nutsedge; Preemergence, 250 g ai/ha): 100
- Nutsedge, Yellow plant response rating (yellow nutsedge; [10]): 90
- Ragweed plant response rating (common ragweed; [8]): 0
- Ragweed plant response rating (common ragweed; [9]): 0
- Plant response rating (0 to 100), Ragweed (common ragweed; Preemergence, 250 g ai/ha): 20
- Soybean plant response rating (soybean; [8]): 0
- Soybean plant response rating (soybean; [9]): 0
- Plant response rating (0 to 100), Soybean (soybean; Preemergence, 250 g ai/ha): 10
- Soybean plant response rating (soybean; [10]): 0
- Plant response rating, Sedge, Umbrella (umbrella sedge; 31 g ai/ha, scale 0 to 100 (0 no effect, 100 complete control)): 90
- Plant response rating, Sedge, Umbrella (umbrella sedge; 62 g ai/ha, scale 0 to 100, 0 no effect, 100 complete control, 13 to 15 days): 95
- Plant response rating, Sedge, Umbrella (umbrella sedge; 125 g ai/ha, scale 0 to 100, 0 no effect, 100 complete control, 13 to 15 days): 100
- Plant response rating, Sedge, Umbrella (umbrella sedge; 250 g ai/ha, scale 0 to 100 (0 no effect, 100 complete control)): 100

SMILES: CCc1cc[n+]([O-])c(S(=O)(=O)Cc2c(C(F)(F)F)nn(C)c2OC(F)F)c1 [Compound 102]
- Plant response rating, Crabgrass, Large (crabgrass; Postemergence, 125 g ai/ha): 60
- Crabgrass, Large plant response rating (crabgrass; [6]): 90
- Crabgrass, Large plant response rating (crabgrass; [7]): 90
- Crabgrass, Large plant response rating (crabgrass; [11]): 90
- Plant response rating, Foxtail, Giant (giant foxtail [1]; Postemergence, 125 g ai/ha): 80
- Foxtail, Giant plant response rating (giant foxtail [1]; [6]): 90
- Foxtail, Giant plant response rating (giant foxtail [1]; [7]): 90
- Foxtail, Giant plant response rating (giant foxtail [1]; [11]): 100
- Plant response rating, Morningglory (morningglory [2]; Postemergence, 125 g ai/ha): 50
- Morningglory plant response rating (morningglory [2]; [6]): 100
- Morningglory plant response rating (morningglory [2]; [7]): 100
- Morningglory plant response rating (morningglory [2]; [11]): 100
- Plant response rating, Wheat (wheat; Postemergence, 125 g ai/ha): 50
- Wheat plant response rating (wheat; [6]): 60
- Wheat plant response rating (wheat; [7]): 50
- Wheat plant response rating (wheat; [11]): 100
- Bromegrass, Downy plant response rating (downy brome; [12]): 100
- Bromegrass, Downy plant response rating (downy brome; [13]): 100
- Plant response rating, Bromegrass, Downy (downy brome; [14]): 50
- Bromegrass, Downy plant response rating (downy brome; [15]): 100
- Cocklebur plant response rating (cocklebur; [12]): 0
- Cocklebur plant response rating (cocklebur; [13]): 0
- Plant response rating, Cocklebur (cocklebur; [14]): 0
- Cocklebur plant response rating (cocklebur; [15]): 0
- Corn plant response rating (corn; [12]): 0
- Corn plant response rating (corn; [13]): 0
- Plant response rating, Corn (corn; [14]): 0
- Corn plant response rating (corn; [15]): 0
- Cupgrass, Woolly plant response rating (woolly cupgrass; [12]): 85
- Cupgrass, Woolly plant response rating (woolly cupgrass; [13]): 85
- Plant response rating, Cupgrass, Woolly (woolly cupgrass; [14]): 50
- Cupgrass, Woolly plant response rating (woolly cupgrass; [15]): 95
- Foxtail, Giant plant response rating (giant foxtail [3]; [12]): 70
- Foxtail, Giant plant response rating (giant foxtail [3]; [13]): 85
- Plant response rating, Foxtail, Giant (giant foxtail [3]; [14]): 60
- Foxtail, Giant plant response rating (giant foxtail [3]; [15]): 85
- Goosegrass plant response rating (Goosegrass; [12]): 98
- Goosegrass plant response rating (Goosegrass; [13]): 100
- Plant response rating, Goosegrass (Goosegrass; [14]): 85
- Goosegrass plant response rating (Goosegrass; [15]): 100
- Johnsongrass plant response rating (johnsongrass; [12]): 100
- Johnsongrass plant response rating (johnsongrass; [13]): 100
- Plant response rating, Johnsongrass (johnsongrass; [14]): 70
- Johnsongrass plant response rating (johnsongrass; [15]): 100
- Lambsquarters plant response rating (lambsquarters; [12]): 80
- Lambsquarters plant response rating (lambsquarters; [13]): 100
- Plant response rating, Lambsquarters (lambsquarters; [14]): 40
- Lambsquarters plant response rating (lambsquarters; [15]): 100
- Morningglory plant response rating (morningglory [4]; [12]): 85
- Morningglory plant response rating (morningglory [4]; [13]): 100
- Plant response rating, Morningglory (morningglory [4]; [14]): 65
- Morningglory plant response rating (morningglory [4]; [15]): 100
- Nutsedge, Yellow plant response rating (yellow nutsedge; [12]): 50
- Nutsedge, Yellow plant response rating (yellow nutsedge; [13]): 50
- Plant response rating, Nutsedge, Yellow (yellow nutsedge; [14]): 0
- Nutsedge, Yellow plant response rating (yellow nutsedge; [15]): 85
- Ragweed plant response rating (common ragweed; [12]): 80
- Ragweed plant response rating (common ragweed; [13]): 85
- Plant response rating, Ragweed (common ragweed; [14]): 75
- Ragweed plant response rating (common ragweed; [15]): 95
- Soybean plant response rating (soybean; [13]): 65
- Plant response rating, Soybean (soybean; [14]): 50
- Soybean plant response rating (soybean; [15]): 80
- Plant response rating, Sedge, Umbrella (umbrella sedge; 62 g ai/ha, scale 0 to 100 (0 no effect, 100 complete control)): 0
- Plant response rating, Sedge, Umbrella (umbrella sedge; 250 g ai/ha, scale 0 to 100, 0 no effect, 100 complete control, 13 to 15 days): 70
